Test results: PMC8157871, “Synthesis, Anticancer Screening of Some Novel Trimethoxy Quinazolines and VEGFR2, EGFR Tyrosine Kinase Inhibitors Assay; Molecular Docking Studies” (Molecules, 2021)

Experiments:
[1] = test system: A549 cell line; test: Cytotoxicity against A549 cell line; conditions: read-out: Cytotoxicity IC50 A549
[2] = test system: MDA cells; test: Cytotoxicity against MDA cell line; conditions: read-out: Cytotoxicity IC50 MDA
[3] = test system: Hela cells; test: Cytotoxicity against Hela cell line; conditions: read-out: Cytotoxicity IC50 Hela
[4] = target: EGFR (Homo sapiens, UniProt P00533); test: EGFR enzyme inhibitory activity
Protocol: (§1) The synthesized compounds were evaluated for anticancer activity by adapting a reported procedure [29, 30, 31, 32, 33] using two enzymes, VEGFR2 and EGFR, as well as three cell lines.

[5] = target: VEGFR2 (Homo sapiens, UniProt P35968); test: VEGFR2 enzyme inhibitory activity
Protocol: as §1

[6] = relative to docetaxel, from IC50 values

Sequence of EGFR (P00533 25-1210): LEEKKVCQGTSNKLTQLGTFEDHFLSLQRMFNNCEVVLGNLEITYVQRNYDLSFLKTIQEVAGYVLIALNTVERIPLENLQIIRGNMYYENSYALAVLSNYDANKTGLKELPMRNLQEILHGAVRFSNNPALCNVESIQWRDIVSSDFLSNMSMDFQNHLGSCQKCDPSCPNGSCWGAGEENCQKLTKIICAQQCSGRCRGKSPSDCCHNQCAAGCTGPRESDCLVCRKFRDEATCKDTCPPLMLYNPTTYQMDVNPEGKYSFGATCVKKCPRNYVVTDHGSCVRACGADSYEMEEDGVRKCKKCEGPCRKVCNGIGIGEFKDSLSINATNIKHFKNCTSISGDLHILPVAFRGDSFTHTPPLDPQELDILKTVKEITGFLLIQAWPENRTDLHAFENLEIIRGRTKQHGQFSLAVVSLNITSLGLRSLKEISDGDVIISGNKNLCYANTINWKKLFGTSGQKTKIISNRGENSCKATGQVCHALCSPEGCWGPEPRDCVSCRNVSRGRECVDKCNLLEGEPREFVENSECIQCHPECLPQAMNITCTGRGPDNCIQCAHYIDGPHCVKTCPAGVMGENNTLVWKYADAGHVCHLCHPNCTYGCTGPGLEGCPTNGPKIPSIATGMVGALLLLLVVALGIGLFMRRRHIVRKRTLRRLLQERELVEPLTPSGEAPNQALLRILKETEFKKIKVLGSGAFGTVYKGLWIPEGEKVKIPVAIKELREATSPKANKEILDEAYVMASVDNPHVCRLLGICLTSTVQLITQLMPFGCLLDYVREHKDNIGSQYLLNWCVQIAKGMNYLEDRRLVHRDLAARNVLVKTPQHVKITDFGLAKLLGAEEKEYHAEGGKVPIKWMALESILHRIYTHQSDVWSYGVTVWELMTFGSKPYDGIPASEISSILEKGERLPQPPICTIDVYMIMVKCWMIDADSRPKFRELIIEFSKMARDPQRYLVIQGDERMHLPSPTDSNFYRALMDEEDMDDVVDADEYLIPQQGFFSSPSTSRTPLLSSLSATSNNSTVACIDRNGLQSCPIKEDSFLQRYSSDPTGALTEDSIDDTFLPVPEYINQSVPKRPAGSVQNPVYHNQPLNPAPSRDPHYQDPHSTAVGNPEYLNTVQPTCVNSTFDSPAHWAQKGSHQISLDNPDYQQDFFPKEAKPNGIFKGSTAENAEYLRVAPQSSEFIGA
Sequence of VEGFR2 (P35968 20-1356): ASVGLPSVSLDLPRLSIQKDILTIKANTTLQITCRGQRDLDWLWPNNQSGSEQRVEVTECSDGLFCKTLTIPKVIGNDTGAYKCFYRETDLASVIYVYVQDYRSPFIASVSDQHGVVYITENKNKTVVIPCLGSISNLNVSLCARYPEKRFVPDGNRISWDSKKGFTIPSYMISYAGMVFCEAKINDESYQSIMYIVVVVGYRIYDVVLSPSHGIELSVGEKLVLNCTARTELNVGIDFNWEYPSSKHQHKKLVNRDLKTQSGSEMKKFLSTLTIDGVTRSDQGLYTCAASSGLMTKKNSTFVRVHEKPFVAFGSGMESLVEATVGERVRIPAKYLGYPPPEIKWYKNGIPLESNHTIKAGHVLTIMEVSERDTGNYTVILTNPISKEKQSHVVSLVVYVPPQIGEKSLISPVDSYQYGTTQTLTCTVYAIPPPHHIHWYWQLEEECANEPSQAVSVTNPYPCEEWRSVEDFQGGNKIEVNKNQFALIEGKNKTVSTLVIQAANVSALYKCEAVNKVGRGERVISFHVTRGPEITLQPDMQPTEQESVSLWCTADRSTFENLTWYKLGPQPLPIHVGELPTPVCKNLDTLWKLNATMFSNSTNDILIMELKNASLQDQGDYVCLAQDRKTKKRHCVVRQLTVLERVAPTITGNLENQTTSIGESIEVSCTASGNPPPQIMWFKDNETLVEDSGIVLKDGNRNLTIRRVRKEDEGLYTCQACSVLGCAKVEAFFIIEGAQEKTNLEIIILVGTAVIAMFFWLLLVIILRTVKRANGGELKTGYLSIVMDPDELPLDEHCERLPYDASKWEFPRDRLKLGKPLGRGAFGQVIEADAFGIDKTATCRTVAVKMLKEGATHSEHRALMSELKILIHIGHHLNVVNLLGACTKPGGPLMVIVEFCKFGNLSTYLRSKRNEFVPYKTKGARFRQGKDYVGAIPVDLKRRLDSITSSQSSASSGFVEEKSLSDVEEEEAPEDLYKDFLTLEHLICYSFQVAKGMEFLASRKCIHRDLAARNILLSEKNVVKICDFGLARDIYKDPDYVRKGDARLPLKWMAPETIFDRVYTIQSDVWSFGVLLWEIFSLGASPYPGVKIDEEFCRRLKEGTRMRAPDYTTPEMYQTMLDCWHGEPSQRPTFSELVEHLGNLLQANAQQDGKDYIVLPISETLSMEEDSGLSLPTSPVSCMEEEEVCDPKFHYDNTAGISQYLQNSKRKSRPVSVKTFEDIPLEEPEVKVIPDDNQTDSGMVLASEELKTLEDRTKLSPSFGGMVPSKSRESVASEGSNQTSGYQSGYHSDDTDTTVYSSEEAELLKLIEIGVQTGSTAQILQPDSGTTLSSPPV

| SMILES | melting point [°C] | IC50 [1] [µM] | IC50 [2] [µM] | IC50 [3] [µM] | IC50 [4] [µM] | inhibitory activity for enzyme EGFR compared to the reference drug [4, 6] [%] | IC50 [5] [µM] | inhibitory activity for enzyme VEGFR2 compared to the reference drug [5, 6] [%] |
| --- | --- | --- | --- | --- | --- | --- | --- | --- |
| COc1cc(-c2nc3c(OC)cccc3c(=O)o2)cc(OC)c1OC [Compound 3, 8-methoxy-2-trimethoxyphenyl-4H-benzo[d](1,3)oxazin-4-one] | 182 to 184 | 43.6 ± 1.1 | 17.4 ± 0.5 | 66.5 ± 1.74 |  |  |  |  |
| COc1cc(-c2nc3c(OC)cccc3c(=O)n2N)cc(OC)c1OC [Compound 4, 3-amino-8-methoxy-2-trimethoxyphenylquanazoline-4(3H)-one] | 182 to 184 | 18 ± 0.5 | 4.12 ± 0.1 | 29.8 ± 0.78 |  |  |  |  |
| COc1cc(-c2nc3c(OC)cccc3c(=O)[nH]2)cc(OC)c1OC [Compound 5, 8-methoxy-2-trimethoxyphenylquanazoline-4(3H)-one] | 242 to 244 | 26.3 ± 0.7 | 4.39 ± 0.1 | 12.9 ± 0.34 |  |  |  |  |
| COc1cccc(C(N)=O)c1NC(=O)c1cc(OC)c(OC)c(OC)c1 [Compound 6] | 132 to 134 | 81 ± 2.1 | 0.79 ± 0.04 | 2.8 ± 0.07 | 0.106 ± 0.00222 | ~53 | 0.0981 ± 0.00293 | ~91 |
| COc1cccc(C(=O)NN)c1NC(=O)c1cc(OC)c(OC)c(OC)c1 [Compound 7, 3-methoxy-2-(trimethoxybenzamido)-benzoylhydrazide] | 195 to 197 | 46.3 ± 1.2 | 9 ± 0.2 | 18.7 ± 0.49 |  |  |  |  |
| COc1cccc(C(=O)NNS(=O)(=O)c2ccccc2)c1NC(=O)c1cc(OC)c(OC)c(OC)c1 [Compound 8, 3-methoxy-2-(trimethoxybenzamido)-N-[benzenesulphonyl]benzoylhydrazide] | 263 to 265 | 13 ± 0.3 | 11.7 ± 0.3 | 4.94 ± 0.13 |  |  |  |  |
| COc1cc(-c2nc3c(OC)cccc3c(=O)n2NS(=O)(=O)c2ccccc2)cc(OC)c1OC [Compound 9, 3-benzenesulfamoyl-8-methoxy-2-trimethoxyphenylquanazoline-4(3H)-one] | 244 to 246 | 19.9 ± 0.5 | 3.42 ± 0.1 | 11.7 ± 0.31 |  |  |  |  |
| COc1cc(-c2nc3c(OC)cccc3c(=O)n2C)cc(OC)c1OC [Compound 10, 3-methyl-8-methoxy-2-trimethoxyphenylquanazoline-4(3H)-one] | 218 to 220 | 12.3 ± 0.3 | 7.77 ± 0.2 | 3.98 ± 0.1 |  |  |  |  |
| COc1cc(-c2nc3c(OC)cccc3c(=O)n2-c2cc(OC)c(OC)c(OC)c2)cc(OC)c1OC [Compound 11] | 237 to 239 | 4.03 ± 0.1 | 7.06 ± 0.2 | 12 ± 0.31 |  |  |  |  |
| CC(=O)O[C@@]12CO[C@@H]1C[C@H](O)[C@@]1(C)C(=O)[C@H](O)C3=C(C)[C@@H](OC(=O)[C@H](O)[C@@H](NC(=O)OC(C)(C)C)c4ccccc4)C[C@@](O)([C@@H](OC(=O)c4ccccc4)[C@H]21)C3(C)C [Docetaxel, docetaxel, reference compound] |  | 10.8 ± 0.23 | 3.98 ± 0.08 | 9.65 ± 0.2 | 0.0561 ± 0.00117 |  | 0.0893 ± 0.00267 |  |
